# Patent US20220402862A1 (Intellia Therapeutics, Inc., priority 2019, published 2022)
# Tested on: mouse B2M gene
# Test: In vivo editing in mouse spleen, G650 sgRNA, % indel by NGS
# Set-up: species or system CD-1 female mice
# Conditions: experiment 108
# Method: In brief, to quantitatively determine the efficiency of editing at the target location in the genome, genomic DNA was isolated and deep sequencing was utilized to identify the presence of insertions and deletions introduced by gene editing.
# PCR primers were designed around the target site (e.g., within B2M), and the genomic area of interest was amplified. Additional PCR was performed according to the manufacturer's protocols (Illumina) to add the necessary chemistry for sequencing. The amplicons were sequenced on an Illumina MiSeq instrument. The reads were aligned to the mouse or rat reference genome (e.g., GRCm38) after eliminating those having low quality scores. The resulting files containing the reads were mapped to the reference genome (BAM files), where reads that overlapped the target region of interest were selected and the number of wild type reads versus the number of reads which contain an insertion, substitution, or deletion was calculated.
# The editing percentage (e.g., the “indel efficiency” or “percent indels”) was defined as the total number of sequence reads with insertions or deletions over the total number of sequence reads, including wild type.
# The in vivo delivery to liver, spleen, and bone marrow was assessed by measuring editing efficiency for materials delivered with formulations including various amine lipid compounds. […] LNPs were formulated at a 1:2 w/w ratio of sgRNA to Cas9 mRNA and at an N/P ratio of about 6. Molar concentrations of lipids in the lipid component of the LNPs are used at mol % amine lipid/DSPC/cholesterol/PEG-2k-DMG of 50/9/38/3. The final LNPs compositions were characterized and analyzed as described in Example 120. Analysis of average particle size, polydispersity (PDI), total RNA content and encapsulation efficiency of RNA are shown in Table 8.
# CD-1 female mice were dosed i.v. at 0.1, 0.3, or 1 mg/kg and assessed for editing in liver, spleen, and bone marrow.
Compound,"% Editing in Spleen (G650, i.v. dose 0.1 mg/kg) [%]","% Editing in Spleen (G650, i.v. dose 0.3 mg/kg) [%]","% Editing in Spleen (G650, i.v. dose 1 mg/kg) [%]"
"CCCCC/C=C\C/C=C\CCCCCCCC(=O)OCC(COC(=O)CCC(OCCCCCCCC)OCCCCCCCC)COC(=O)OCCCN(CC)CC (stereo not drawn) [Compound 1, 3-((4,4-bis(octyloxy)butanoyl)oxy)-2-((((3-(diethylamino)propoxy)carbonyl)oxy)methyl)propyl (9Z,12Z)-octadeca-9,12-dienoate, reference compound]",0.62,2.2,6.26
"CCCCC/C=C\C/C=C\CCCCCCCC(=O)OCC(COC(=O)CC12CC3CC(CC(C3)C1)C2)COC(=O)OCCCN(CC)CC (stereo not drawn) [Compound 107, 3-(2-((3 r,5 r, 7r)-adamantan-1-yl)acetoxy)-2-((((3-(diethylamino)propoxy)carbonyl)oxy)methyl)propyl (9Z,12Z)-octadeca-9,12-dienoate]",0.08,0.12,0.3
